Reference: PubChem BioAssay (NCI)
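How tested: cells in 96-well plates exposed to compound for 48 hours at five concentrations. GI50: concentration for 50% inhibition of growth. At the TGI there is no net growth.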

Experiments:
Assay in all cases: inhibition of tumour cell growth, NCI panel, 48 h
[1] = system: BT-549 breast
[2] = system: HL-60(TB) leukemia
[3] = system: UACC-62 melanoma
[4] = system: HCC-2998 colon
[5] = system: SR leukemia
[6] = system: LOX IMVI melanoma
[7] = system: HCT-15 colon
[8] = system: MDA-MB-231 breast
[9] = system: SF-539 CNS
[10] = system: MALME-3M melanoma
[11] = system: HS 578T breast
[12] = system: TK-10 renal
[13] = system: K-562 leukemia
[14] = system: IGROV1 ovarian
[15] = system: RXF 393 renal
[16] = system: HOP-62 NSCLC
[17] = system: NCI-H23 lung
[18] = system: T-47D breast
[19] = system: SW-620 colon
[20] = system: MDA-MB-435
[21] = system: SN12C renal
[22] = system: SK-MEL-28 melanoma
[23] = system: SNB-75 CNS
[24] = system: UO-31 renal
[25] = system: MOLT-4 leukemia
[26] = system: HOP-92 NSCLC
[27] = system: CCRF-CEM leukemia
[28] = system: COLO 205 colon
[29] = system: CAKI-1 renal
[30] = system: RPMI-8226 leukemia
[31] = system: PC-3 prostate
[32] = system: SF-268 CNS
[33] = system: UACC-257 melanoma
[34] = system: HT29 colon
[35] = system: SNB-19 CNS
[36] = system: OVCAR-3 ovarian
[37] = system: OVCAR-4 ovarian
[38] = system: A549 NSCLC
[39] = system: U251 CNS
[40] = system: KM12 colon
[41] = system: MCF7 breast
[42] = system: OVCAR-5 ovarian
[43] = system: SK-MEL-2 melanoma
[44] = system: SF-295 CNS
[45] = system: NCI/ADR-RES ovarian
[46] = system: OVCAR-8 ovarian
[47] = system: SK-OV-3 ovarian
[48] = system: NCI-H522 lung
[49] = system: NCI-H460 lung
[50] = system: A498 renal
[51] = system: SK-MEL-5 melanoma
[52] = system: 786-0 renal
[53] = system: HCT-116 colon
[54] = system: NCI-H226 lung
[55] = system: ACHN renal
[56] = system: M14 melanoma
[57] = system: DU-145 prostate
[58] = system: EKVX NSCLC

For `O=c1c(Oc2ccc(F)cc2F)cc2cnc(NC3CCOCC3)nc2n1C1CCS(=O)(=O)CC1`, the GI50 [1] was > 25 µM, the TGI [1] was > 25 µM and the GI50 [2] was > 25 µM. The TGI [2] was > 25 µM, the GI50 [3] was > 25 µM and the TGI [3] was > 25 µM. The GI50 [4] was > 25 µM, the TGI [4] was > 25 µM and the GI50 [5] was > 25 µM. The TGI [5] was > 25 µM, the GI50 [6] was > 25 µM and the TGI [6] was > 25 µM. For the same compound, the GI50 [7] was > 25 µM, the TGI [7] was > 25 µM and the GI50 [8] was > 25 µM. For the same compound, the TGI [8] was > 25 µM, the GI50 [9] was > 25 µM and the TGI [9] was > 25 µM. For the same compound, the GI50 [10] was > 25 µM, the TGI [10] was > 25 µM and the GI50 [11] was > 25 µM. For the same compound, the TGI [11] was > 25 µM, the GI50 [12] was > 25 µM and the TGI [12] was > 25 µM. The GI50 [13] was > 25 µM, the TGI [13] was > 25 µM and the GI50 [14] was > 25 µM. The TGI [14] was > 25 µM, the GI50 [15] was > 25 µM and the TGI [15] was > 25 µM. For the same compound, the GI50 [16] was > 25 µM, the TGI [16] was > 25 µM and the GI50 [17] was > 25 µM. For the same compound, the TGI [17] was > 25 µM, the GI50 [18] was > 25 µM and the TGI [18] was > 25 µM. For the same compound, the GI50 [19] was > 25 µM, the TGI [19] was > 25 µM and the GI50 [20] was > 25 µM. For the same compound, the TGI [20] was > 25 µM, the GI50 [21] was > 25 µM and the TGI [21] was > 25 µM. For the same compound, the GI50 [22] was > 25 µM, the TGI [22] was > 25 µM and the GI50 [23] was > 25 µM. The TGI [23] was > 25 µM, the GI50 [24] was > 25 µM and the TGI [24] was > 25 µM. The GI50 [25] was > 25 µM, the TGI [25] was > 25 µM and the GI50 [26] was > 25 µM. The TGI [26] was > 25 µM, the GI50 [27] was > 25 µM and the TGI [27] was > 25 µM. The GI50 [28] was > 25 µM, the TGI [28] was > 25 µM and the GI50 [29] was > 25 µM. The TGI [29] was > 25 µM, the GI50 [30] was > 25 µM and the TGI [30] was > 25 µM. The GI50 [31] was > 25 µM, the TGI [31] was > 25 µM and the GI50 [32] was > 25 µM. For the same compound, the TGI [32] was > 25 µM, the GI50 [33] was > 25 µM and the TGI [33] was > 25 µM. For the same compound, the GI50 [34] was > 25 µM, the TGI [34] was > 25 µM and the GI50 [35] was > 25 µM. For the same compound, the TGI [35] was > 25 µM, the GI50 [36] was > 25 µM and the TGI [36] was > 25 µM. The GI50 [37] was > 25 µM, the TGI [37] was > 25 µM and the GI50 [38] was > 25 µM. The TGI [38] was > 25 µM, the GI50 [39] was > 25 µM and the TGI [39] was > 25 µM. For the same compound, the GI50 [40] was > 25 µM, the TGI [40] was > 25 µM and the GI50 [41] was > 25 µM. For the same compound, the TGI [41] was > 25 µM, the GI50 [42] was > 25 µM and the TGI [42] was > 25 µM. The GI50 [43] was > 25 µM, the TGI [43] was > 25 µM and the GI50 [44] was > 25 µM. The TGI [44] was > 25 µM, the GI50 [45] was > 25 µM and the TGI [45] was > 25 µM. The GI50 [46] was > 25 µM, the TGI [46] was > 25 µM and the GI50 [47] was > 25 µM. For the same compound, the TGI [47] was > 25 µM, the GI50 [48] was > 25 µM and the TGI [48] was > 25 µM. For the same compound, the GI50 [49] was > 25 µM, the TGI [49] was > 25 µM and the GI50 [50] was > 25 µM. The TGI [50] was > 25 µM, the GI50 [51] was > 25 µM and the TGI [51] was > 25 µM. For the same compound, the GI50 [52] was > 25 µM, the TGI [52] was > 25 µM and the GI50 [53] was > 25 µM. The TGI [53] was > 25 µM, the GI50 [54] was > 25 µM and the TGI [54] was > 25 µM. The GI50 [55] was > 25 µM, the TGI [55] was > 25 µM and the GI50 [56] was > 25 µM. For the same compound, the TGI [56] was > 25 µM, the GI50 [57] was > 25 µM and the TGI [57] was > 25 µM.

`CC(=O)O[C@@H]1CC[C@@]2(C)C(CC[C@H]3[C@@H]4CC[C@H]([C@H](C)CCc5nc6ccc(C)cc6[nH]5)[C@@]4(C)CC[C@@H]32)C1` (stereo partly drawn) was tested, and the TGI [1] was > 100 µM, the TGI [3] was > 100 µM and the TGI [4] was > 100 µM. The TGI [6] was > 100 µM, the TGI [7] was > 100 µM and the TGI [8] was 55.3 µM. The TGI [9] was > 100 µM, the TGI [11] was > 100 µM and the TGI [12] was > 100 µM. The TGI [13] was > 100 µM, the TGI [14] was 19.1 µM and the TGI [15] was > 100 µM. For the same compound, the TGI [16] was > 100 µM, the TGI [17] was > 100 µM and the TGI [18] was 4.63 µM. The TGI [19] was > 100 µM, the TGI [20] was > 100 µM and the TGI [21] was > 100 µM. The TGI [22] was > 100 µM, the TGI [23] was 24.1 µM and the TGI [24] was > 100 µM. For the same compound, the TGI [25] was > 100 µM, the TGI [26] was > 100 µM and the TGI [27] was 8.47 µM. The TGI [28] was > 100 µM, the TGI [29] was > 100 µM and the TGI [30] was 84.3 µM. The TGI [31] was > 100 µM, the TGI [32] was > 100 µM and the TGI [33] was > 100 µM. The TGI [34] was 70.7 µM, the TGI [35] was > 100 µM and the TGI [36] was > 100 µM. The TGI [37] was > 100 µM, the TGI [38] was > 100 µM and the TGI [39] was > 100 µM. For the same compound, the TGI [40] was 31.7 µM, the TGI [41] was > 100 µM and the TGI [42] was > 100 µM. For the same compound, the TGI [43] was > 100 µM, the TGI [44] was > 100 µM and the TGI [45] was > 100 µM. For the same compound, the TGI [46] was > 100 µM, the TGI [47] was > 100 µM and the TGI [48] was > 100 µM. For the same compound, the TGI [50] was > 100 µM, the TGI [51] was > 100 µM and the TGI [52] was > 100 µM. For the same compound, the TGI [53] was > 100 µM, the TGI [54] was 48.1 µM and the TGI [55] was > 100 µM. For the same compound, the TGI [58] was 53.3 µM, the TGI [56] was > 100 µM and the TGI [57] was > 100 µM.
